Values of other authors in patent US20130230609A1, “ANTIMICROBIAL/PRESERVATIVE COMPOSITIONS COMPRISING BOTANICALS” (priority 2012, published 2013).

Row | Substance | water solubility (in words)
1 | zinc glycerate | moderately water soluble
2 | zinc picolinate | moderately water soluble
